# In US4421767A, “Compounds and methods for treating depression” (priority 1982, dated 1983):
# Like-named read-outs stand apart in the source and are kept apart here.
# Legend:
# [1] = system: MAO; settings: literature; cited from earlier work
# [2] = system: MAO; assay: In vitro MAO inhibition; assay type: biochemical
# [3] = system: non-neuronal MAO; assay: Ex vivo MAO activity after i.p. injection in rats, non-neuronal MAO; parameters: species or system rat; settings: AFMBA 100 mg/kg i.p., 18 hours
# Protocol: (§1) Rats were injected with AFHBA (0.5 mg/kg, i.p.) alone or with AFHBA (0.5 mg/kg, i.p.) in combination with MFMD (2.0 mg/kg, i.p.) administered 30 minutes before AFHBA. Animals were killed 18 hours later and MAO activity (5-HT and phenethylamine as substrates) was determined in brain, heart, and liver. In the brain, AFHBA administered alone inhibited neuronal MAO by 72% and non-neuronal MAO by 37%.
# (§2) III. Rats were injected with AFMBA (100 mg/kg, i.p.) and were killed 18 hours later. MAO activity was determined in the brain, heart, and liver using 5-HT and PEA.
# [4] = system: neuronal MAO; assay: Ex vivo MAO activity after i.p. injection in rats, neuronal MAO; parameters: species or system rat; settings: AFMBA 100 mg/kg i.p., 18 hours
# Protocol: as §1, §2
# [5] = system: brain noradrenaline and 5-HT concentrations; assay: Brain amine concentration, AFHBA with or without carbidopa pretreatment in rats (Table II); assay type: in vivo, rat; settings: for Brain Amine Concentration, 5-HT / Brain Amine Concentration, Noradrenaline: 5 days
# Protocol: (§3) (B) Rats were gavaged with saline or carbidopa given at dosage of 10 or 100 mg/kg. Thirty minutes later, the rats were gavaged with saline or AFHBA given at a dosage of 62.5 μg/kg. This treatment was repeated daily for 5 days. On the 6th day, the rats were anaesthetized and heart rate and blood pressure responses to tyramine (0.3-50 mg/kg, i.d.) were determined. Additionally, monoamines and MAO activity were determined in various tissues, including brain.
# [6] = system: heart rate and blood pressure responses to tyramine; assay type: in vivo, rat; settings: for Tyramine Potentiation: 5 days, tyramine i.d.
# Protocol: as §3
# [7] = system: MAO; assay: Ex vivo MAO activity in rats, protection by extracerebral AADC inhibitor; parameters: species or system rat; settings: carbidopa 50 mg/kg i.p. with AFHBA, compared with MFMD 2.0 mg/kg i.p., heart
# Protocol: as §1
# MAO activity was determined in the brain using 5-HT and phenethylamine (PEA) as substrates.
# [8] = system: depression; settings: literature; cited from earlier work
# [9] = system: MAO-A; settings: literature; cited from earlier work
# [10] = system: heart rate and blood pressure responses to tyramine; assay: Potentiation of tyramine response after 5 days oral MAO inhibitor in rats (Table I); assay type: in vivo, rat; settings: for Tyramine Potentiation: 5 days, tyramine i.d.
# Protocol: (A) Rats were gavaged daily for 5 days with saline or 2-amino-4-fluoro-3-(3'-hydroxyphenyl)-3-butenoic acid (AFHBA) at dosages of 15.6, 62.5, 250, or 1000 μg/kg or with clorgyline at dosages of 1250 or 5000 μg/kg. On the 6th day, rats were anaesthetized and heart rate and blood pressure responses to tyramine (0.3-50 mg/kg) administered intraduodenally (i.d.) were determined. Additionally, monoamines and MAO activity were determined in various tissues including brain.
# [11] = system: brain noradrenaline and 5-HT concentrations; assay: Brain amine concentration after 5 days oral MAO inhibitor in rats (Table I); assay type: in vivo, rat; settings: for Brain Amine Concentration, 5-HT / Brain Amine Concentration, Noradrenaline: 5 days
# Protocol: On the 6th day, rats were anaesthetized and heart rate and blood pressure responses to tyramine (0.3-50 mg/kg) administered intraduodenally (i.d.) were determined. Additionally, monoamines and MAO activity were determined in various tissues including brain.
# [12] = system: cheese effect; settings: low dosages where preferential inhibition of MAO-B occurs; cited from earlier work
# [13] = system: MAO-B; settings: literature; cited from earlier work
# [14] = carbidopa alone 10000 μg/kg daily p.o.
# [15] = carbidopa alone 100000 μg/kg daily p.o.
# [16] = Clorgyline 5000 μg/kg daily p.o.
# [17] = Clorgyline 1250 μg/kg daily p.o.
smiles,measurement,setting,value
N[C@@H]1C[C@H]1c1ccccc1 (relative stereo) [tranylcypromine],preference of action upon MAO,[1],not preferential in their action upon MAO
NCC(=CF)c1cccc(O)c1 [2-(3'-hydroxy)phenyl-3-fluoroallylamine],MAO inhibition type,[2],time-dependent irreversible inhibitor
same,IC50,[2]; unit inferred,~1 nM
"COc1ccc(C(=CF)C(N)C(=O)O)cc1O (centres unmarked) [AFMBA, 2-amino-4-fluoro-3-(3'-hydroxy-4-methoxyphenyl)-3-butenoic acid]","% Inhibition of MAO, Non-neuronal",[3]; brain,40%
same,"% Inhibition of MAO, Non-neuronal",[3]; heart,46%
same,"% Inhibition of MAO, Non-neuronal",[3]; liver,11%
same,"% Inhibition of MAO, Neuronal",[4]; brain,16%
same,"% Inhibition of MAO, Neuronal",[4]; heart,18%
same,"% Inhibition of MAO, Neuronal",[4]; liver,2%
"C[C@@](Cc1ccc(O)c(O)c1)(NN)C(=O)O [Carbidopa, reference compound]",elevation of brain monoamines on coadministration with AFHBA,[5]; carbidopa 10 mg/kg + AFHBA 62.5 μg/kg,significantly enhanced the elevation of brain monoamines
same,effectiveness of AFHBA to raise brain monoamines on coadministration,[5]; carbidopa 100 mg/kg + AFHBA,reduced the effectiveness of AFHBA to raise brain monoamines
same,"Brain Amine Concentration, 5-HT",[5]; [14],599 ± 31 ng/g
same,"Brain Amine Concentration, Noradrenaline",[5]; [14],366 ± 3 ng/g
same,"Brain Amine Concentration, 5-HT",[5]; [15],443 ± 19 ng/g
same,"Brain Amine Concentration, Noradrenaline",[5]; [15],271 ± 19 ng/g
same,effect on tyramine response,[6]; carbidopa alone 10 mg/kg,no effect on tyramine response
same,Tyramine Potentiation,[6]; [14],1.1
same,Tyramine Potentiation,[6]; [15],2.3
same,effect on tyramine response,[6]; carbidopa alone 100 mg/kg,potentiated the tyramine response
same,protective effect against inhibition of MAO in the heart,[7],same protective effect against inhibition of MAO in the heart as MFMD
"C#CCN(C)CCCOc1ccc(Cl)cc1Cl [Clorgyline, reference compound]",clinical antidepressant effect,[8],clinically effective antidepressant agents
same,preferential inhibition of MAO-A,[9],preferentially inhibited
same,Tyramine Potentiation,"[10]; Clorgyline 1250 μg/kg daily p.o., some potentiation at lowest doses of tyramine (footnote c)",1.0
same,Tyramine Potentiation,[10]; [16],5.0
same,potentiation of the tyramine response (dose relation),[10]; subacute treatment,potentiation of the tyramine response
same,selectivity at lower versus higher dosages,[1],"selective inhibitors at lower dosages, but are not selective inhibitors at higher dosages"
same,"Brain Amine Concentration, 5-HT",[11]; [17],620 ± 34 ng/g
same,"Brain Amine Concentration, Noradrenaline",[11]; [17],351 ± 11 ng/g
same,"Brain Amine Concentration, 5-HT",[11]; [16],1027 ± 82 ng/g
same,"Brain Amine Concentration, Noradrenaline",[11]; [16],329 ± 19 ng/g
same,brain noradrenaline and 5-HT concentrations (dose relation),[11]; subacute treatment,dose-related increases in brain noradrenaline and 5-HT concentrations
C#CCN(C)[C@H](C)Cc1ccccc1 [L-deprenyl],cheese effect,[12],not observed
same,clinical antidepressant effect,[8],clinically effective antidepressant agents
Cc1cc(C(=O)NNCc2ccccc2)no1 [isocarboxazid],preference of action upon MAO,[1],not preferential in their action upon MAO
C#CCN(C)Cc1ccccc1 [pargyline],clinical antidepressant effect,[8],clinically effective antidepressant agents
same,selectivity at lower versus higher dosages,[1],"selective inhibitors at lower dosages, but are not selective inhibitors at higher dosages"
same,preferential inhibition of MAO-B,[13],preferentially inhibited
NNCCc1ccccc1 [phenelzine],preference of action upon MAO,[1],not preferential in their action upon MAO
